This note sets out measurements from US8466281B2, “2,5-disubstituted morpholine orexin receptor antagonists” (Merck Sharp & Dohme Corp., priority 2008, dated 2013).

The target of one test is T1, orexin-2 receptor (OX2R) (Homo sapiens, UniProt O43614).
T1 construct: expressed in transfected cells; host or cells: CHO cells (membranes)
T1 sequence (O43614 1-444): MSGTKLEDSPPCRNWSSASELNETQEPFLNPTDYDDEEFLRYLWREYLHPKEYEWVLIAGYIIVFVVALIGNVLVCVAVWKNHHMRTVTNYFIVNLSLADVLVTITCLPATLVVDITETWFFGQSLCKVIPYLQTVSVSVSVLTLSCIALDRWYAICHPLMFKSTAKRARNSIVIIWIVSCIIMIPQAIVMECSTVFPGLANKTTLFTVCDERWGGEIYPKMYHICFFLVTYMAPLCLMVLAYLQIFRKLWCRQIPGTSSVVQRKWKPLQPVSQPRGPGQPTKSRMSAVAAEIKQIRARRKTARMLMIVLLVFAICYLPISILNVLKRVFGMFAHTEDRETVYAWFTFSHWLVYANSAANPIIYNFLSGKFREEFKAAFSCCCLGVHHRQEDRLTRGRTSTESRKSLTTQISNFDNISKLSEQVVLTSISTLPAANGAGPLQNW
The experiment in a line: Radioligand binding assay, OX2R. The settings on record: membranes prepared from CHO cells expressing the orexin-2 (OX2) receptor.

The next test deals with T2, orexin-1 receptor (OX1R) (UniProt O43613).
T2 sequence (O43613 1-425): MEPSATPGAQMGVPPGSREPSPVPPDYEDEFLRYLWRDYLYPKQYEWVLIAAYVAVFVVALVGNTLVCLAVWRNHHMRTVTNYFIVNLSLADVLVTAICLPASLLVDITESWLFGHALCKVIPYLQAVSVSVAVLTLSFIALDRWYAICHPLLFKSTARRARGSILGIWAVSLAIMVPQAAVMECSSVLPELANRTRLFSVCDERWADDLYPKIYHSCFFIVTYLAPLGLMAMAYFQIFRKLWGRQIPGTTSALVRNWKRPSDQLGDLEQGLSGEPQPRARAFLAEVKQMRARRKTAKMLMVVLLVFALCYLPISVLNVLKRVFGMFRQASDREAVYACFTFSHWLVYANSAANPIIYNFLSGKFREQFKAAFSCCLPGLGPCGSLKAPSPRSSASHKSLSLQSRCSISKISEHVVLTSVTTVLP
The experiment in a line: Radioligand binding assay, OX1R. The settings on record: membranes prepared from CHO cells expressing the orexin-1 (OX1) receptor.

As a reminder, the Ki is a dissociation constant, usually derived from enzyme kinetics or from competition with a known ligand. Turning to `Cc1ccc(-n2nccn2)c(C(=O)N2C[C@H](COc3ccc(Br)cn3)OC[C@H]2C)c1` [A-10], the results for the Ki on orexin-2 receptor (OX2R) and at orexin-1 receptor (OX1R) were 0.0013 µM and 0.021 µM, respectively.
On the same counts, the results for `Cc1ccc(-n2nccn2)c(C(=O)N2C[C@H](COc3ccnc4ccccc34)OC[C@H]2C)c1` [A-12, 4-({(2R,5R)-5-methyl-4-[5-methyl-2-(2H-1,2,3-triazol-2-yl)benzoyl]morpholin-2-yl}methoxy)quinoline] are 0.039 µM and 0.017 µM.
The matching figures for `Cc1ccc(-n2nccn2)c(C(=O)N2C[C@H](COc3ncccc3C)OC[C@H]2C)c1` [A-13, (2R,5R)-5-methyl-2-{[(3-methylpyridin-2-yl)oxy]methyl}-4-[5-methyl-2-(2H-1,2,3-triazol-2-yl)benzoyl]morpholine]: 0.0083 µM and 0.72 µM.
`Cc1ccc(-n2nccn2)c(C(=O)N2C[C@H](COc3nccc4ccccc34)OC[C@H]2C)c1` [A-9, 1-({(2R,5R)-5-methyl-4-[5-methyl-2-(2H-1,2,3-triazol-2-yl)benzoyl]morpholin-2-yl}methoxy)isoquinoline] had a Ki on orexin-1 receptor (OX1R) of 0.023 µM.
In turn, `Cc1ccc(-n2nccn2)c(C(=O)N2C[C@H](COc3nccc4ccccc34)OC[C@H]2C)c1` [A-11, 1-({(2R,5R)-5-methyl-4-[5-methyl-2-(2H-1,2,3-triazol-2-yl)benzoyl]morpholin-2-yl}methoxy)isoquinoline] had a Ki at orexin-1 receptor (OX1R) of 0.0022 µM.
